Test system: PDC KRAS tumor spheroids with HUVEC/MSC, viability
Test: Anticancer human tumor 349418-098-R-PDC patient-derived lung adenocarcinoma cell line growth inhibition [KRAS2]
Details: for IC50: curve of first compound; for viability, T/C: stronger effect = lower value
Method in brief: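 Combination screen of spheroid viability in tumor-cell co-cultures with endothelial (HUVEC) and mesenchymal stem cell stroma. Each agent was tested in half-log dilutions, topping at clinical Cmax or at 10 microM without a known Cmax.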

[1] = second compound 0.0316 µM, first compound 0.0316 µM
[2] = second compound 0.0316 µM, first compound 0.1 µM
[3] = second compound 0.0316 µM, first compound 0.316 µM
[4] = second compound 0.0316 µM, first compound 1 µM
[5] = second compound 0.0316 µM, first compound 3.16 µM
[6] = second compound 0.1 µM, first compound 0.01 µM
[7] = second compound 0.1 µM, first compound 0.0316 µM
[8] = second compound 0.1 µM, first compound 0.1 µM
[9] = second compound 0.1 µM, first compound 0.316 µM
[10] = second compound 0.1 µM, first compound 1 µM
[11] = second compound 0.1 µM, first compound 3.16 µM
[12] = second compound 0.316 µM, first compound 0.01 µM
[13] = second compound 0.316 µM, first compound 0.0316 µM
[14] = second compound 0.316 µM, first compound 0.1 µM
[15] = second compound 0.316 µM, first compound 0.316 µM
[16] = second compound 0.316 µM, first compound 1 µM
[17] = second compound 0.316 µM, first compound 3.16 µM
[18] = second compound 1 µM, first compound 0.01 µM
[19] = second compound 1 µM, first compound 0.0316 µM
[20] = second compound 1 µM, first compound 0.1 µM
[21] = second compound 1 µM, first compound 0.316 µM
[22] = second compound 1 µM, first compound 1 µM
[23] = second compound 1 µM, first compound 3.16 µM
[24] = second compound 3.16 µM, first compound 0.01 µM
[25] = second compound 3.16 µM, first compound 0.0316 µM
[26] = second compound 3.16 µM, first compound 0.1 µM
[27] = second compound 3.16 µM, first compound 0.316 µM
[28] = second compound 3.16 µM, first compound 1 µM
[29] = second compound 3.16 µM, first compound 3.16 µM
[30] = second compound 0.0316 µM, first compound 10 µM
[31] = second compound 0.1 µM, first compound 10 µM
[32] = second compound 0.316 µM, first compound 10 µM
[33] = second compound 1 µM, first compound 10 µM
[34] = second compound 3.16 µM, first compound 10 µM
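Further: spheroids exposed to compounds for seven days before readout.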

Structure (SMILES) | IC50 (second compound 0.1 µM) | IC50 (second compound 0.316 µM) | IC50 (second compound 1 µM) | IC50 (second compound 3.16 µM) | viability, T/C [7] | viability, T/C [8] | viability, T/C [9] | viability, T/C [10] | viability, T/C [11] | viability, T/C [13] | viability, T/C [14] | viability, T/C [15] | viability, T/C [16] | viability, T/C [17] | viability, T/C [19] | viability, T/C [20] | viability, T/C [21] | viability, T/C [22] | viability, T/C [23] | viability, T/C [25] | other results
CC1COCCN1c1cc(-c2ccnn2C)c2ccnc(-c3ccn[nH]3)c2n1 (stereo not given) + C=CC(=O)N1CCN(c2nc(OCC3CCCN3C)nc3c2CCN(c2cccc4cccc(C)c24)C3)CC1CC#N | 31.1 nM | 23.8 nM | < 10 nM | < 10 nM | 49.1% | 9.48% | 5.64% | 4.53% | 3.65% | 33% | 5.66% | 4.96% | 4.7% | 4.39% | 4.15% | 3.41% | 4.26% | 3.79% | 3.79% | 0.21% | IC50 (second compound 0.0316 µM): 29.8 nM; viability, T/C (second compound 0.0316 µM, first compound 0.01 µM): 94.1%; viability, T/C [1]: 47.6%; viability, T/C [2]: 9.45%; viability, T/C [3]: 5.83%; viability, T/C [4]: 4.78%; viability, T/C [5]: 4.54%; viability, T/C [6]: 112%; viability, T/C [12]: 102%; viability, T/C [18]: 43.6%; viability, T/C [24]: 0.1%; viability, T/C [26]: 0.07%; viability, T/C [27]: 0.06%; viability, T/C [28]: 0.07%; viability, T/C [29]: 0.12%
CC1OCC2(CCN(c3cnc(Sc4ccnc(N)c4Cl)c(N)n3)CC2)C1N (stereo not given) + C=CC(=O)N1CCN(c2nc(OCC3CCCN3C)nc3c2CCN(c2cccc4cccc(C)c24)C3)CC1CC#N | > 10000 nM | > 10000 nM | 6510 nM | < 31.6 nM | 108% | 93.6% | 79.8% | 89.4% | 78% | 99% | 112% | 97.8% | 98.5% | 96.8% | 71% | 69.4% | 62.9% | 58.3% | 50.2% | 0.15% | IC50 (second compound 0.0316 µM): > 10000 nM; viability, T/C [1]: 122%; viability, T/C [2]: 95.1%; viability, T/C [3]: 92.8%; viability, T/C [4]: 96.8%; viability, T/C [5]: 94.1%; viability, T/C [30]: 68.7%; viability, T/C [31]: 83.6%; viability, T/C [32]: 95.1%; viability, T/C [33]: 49.5%; viability, T/C [26]: 0.15%; viability, T/C [27]: 0.13%; viability, T/C [28]: 0.14%; viability, T/C [29]: 0.14%; viability, T/C [34]: 0.26%
CCNC(=O)CC1N=C(c2ccc(Cl)cc2)c2cc(OC)ccc2-n2c(C)nnc21 (stereo not given) + C=CC(=O)N1CCN(c2nc(OCC3CCCN3C)nc3c2CCN(c2cccc4cccc(C)c24)C3)CC1CC#N | 95.7 nM | 186 nM | 47.7 nM | < 31.6 nM | 93.1% | 48.1% | 21.8% | 9.94% | 1.6% | 101% | 70.5% | 30.6% | 16.6% | 4.31% | 62.9% | 26.6% | 10.7% | 4.52% | 0.59% | 0.12% | IC50 (second compound 0.0316 µM): 122 nM; viability, T/C [1]: 102%; viability, T/C [2]: 50.9%; viability, T/C [3]: 34.2%; viability, T/C [4]: 8.72%; viability, T/C [5]: 1.74%; viability, T/C [30]: 0.85%; viability, T/C [31]: 0.66%; viability, T/C [32]: 1.58%; viability, T/C [33]: 2.47%; viability, T/C [26]: 0.1%; viability, T/C [27]: 0.09%; viability, T/C [28]: 0.08%; viability, T/C [29]: 0.08%; viability, T/C [34]: 0.13%
Cn1nccc1Nc1nccc(-c2cc3c(s2)C(C)(C)N(CCN2CCOCC2)C3=O)n1 + C=CC(=O)N1CCN(c2nc(OCC3CCCN3C)nc3c2CCN(c2cccc4cccc(C)c24)C3)CC1CC#N | 59.7 nM | 49.3 nM | < 31.6 nM | < 31.6 nM | 70.2% | 31.8% | 21.5% | 8.37% | 7.54% | 62.2% | 31% | 14.8% | 9.55% | 7.33% | 41.5% | 32.5% | 13.6% | 7.03% | 4.51% | 0.13% | IC50 (second compound 0.0316 µM): 44.7 nM; viability, T/C [1]: 57.1%; viability, T/C [2]: 33.1%; viability, T/C [3]: 20.7%; viability, T/C [4]: 8.51%; viability, T/C [5]: 7.52%; viability, T/C [30]: 5.99%; viability, T/C [31]: 5.51%; viability, T/C [32]: 4.36%; viability, T/C [33]: 3.02%; viability, T/C [26]: 0.09%; viability, T/C [27]: 0.07%; viability, T/C [28]: 0.07%; viability, T/C [29]: 0.07%; viability, T/C [34]: 0.17%
CC(=O)OC12COC1CC(O)C1(C)C(=O)C(O)C3=C(C)C(OC(=O)C(O)C(NC(=O)OC(C)(C)C)c4ccccc4)CC(O)(C(OC(=O)c4ccccc4)C21)C3(C)C (stereo not given) + CC1OCC2(CCN(c3cnc(Sc4ccnc(N)c4Cl)c(N)n3)CC2)C1N | < 10 nM | < 10 nM | < 10 nM | < 10 nM | 28.1% | 21.9% | 27.2% | 28.7% | 36.1% | 22.9% | 29.1% | 27.9% | 29.7% | 35.2% | 26.9% | 27.5% | 27.6% | 33.9% | 43.5% | 28.4% | IC50 (second compound 10 µM): < 10 nM; viability, T/C [6]: 18%; viability, T/C [12]: 21.6%; viability, T/C [18]: 22.4%; viability, T/C [24]: 21.5%; viability, T/C [26]: 22.5%; viability, T/C [27]: 25.4%; viability, T/C [28]: 26%; viability, T/C [29]: 28.3%; viability, T/C (second compound 10 µM, first compound 0.01 µM): 19.9%; viability, T/C (second compound 10 µM, first compound 0.0316 µM): 24.5%; viability, T/C (second compound 10 µM, first compound 0.1 µM): 28.3%; viability, T/C (second compound 10 µM, first compound 0.316 µM): 24.1%; viability, T/C (second compound 10 µM, first compound 1 µM): 31.7%; viability, T/C (second compound 10 µM, first compound 3.16 µM): 38.5%

Source: PubChem BioAssay AID1963866 (Molecular Pharmacology Branch, DTP, NCI, 2024)
